# In US20250368963A1, “PROXIMAL-BIASED KIDNEY ORGANOIDS” (UNIVERSITY OF SOUTHERN CALIFORNIA, priority 2024, published 2025):
# “Also recorded” adds a separate entry of the source.
# What was measured:
# [1] = system: human iPSC-derived kidney organoid nephrons; test: Whole-mount immunofluorescence quantification of organoid nephrons; type: cell-based
# [2] = system: E12.5 mouse kidney explants; test: Mouse kidney organ culture with inhibitors, immunofluorescence; type: cell-based; conditions: mouse kidney explants cultured 48 hours with inhibitor(s)
# Method: Mouse kidney explants and culture: Pregnant female Swiss Webster mice were euthanized on day E12.5 of pregnancy via CO2 following appropriate University of Southern California IACUC approved protocol. Embryos were removed and placed into PBS before dissecting out kidneys for explant culture as described below. Mouse kidney organ culture: Kidneys were dissected from E12.5 embryos and cultured for 48 hours at 37° C./5% CO2 in DMEM. Treatment condition culture media was initially supplemented with 20 μM LY294002, 2 μM DAPT (Tocris 2634), or both, before 48 hours of culture, following prior studies. After culture, mouse kidney explants were prepared for immunofluorescent analyses as described below for organoids.
# [3] = system: HNF4A-YFP control and PB organoids; test: DAPT treatment of HNF4A-YFP organoids after Ly29 withdrawal; type: cell-based, human; conditions: DAPT 48 hours between days 12 and 14, control and PB conditions
# Method: To determine whether HNF4A^+ cell differentiation is Notch-signaling dependent, the study treated HNF4A-YFP control and PB organoids with DAPT for 48 hours between days 12 and 14, after Ly29 withdrawal (FIGS. 16E-16F). […] In DAPT conditions, YFP− structures still developed but were HNF1B^+/JAG1^+/HNF4A− (FIG. 16E), indicating Notch signaling is required for the transition from HNF1B^+ to HNF4A^+ cells, as anticipated. PB organoids contained more HNF4A^+ structures than other conditions, and controls formed more HNF4A^+ structures than DAPT-treated conditions (pvalues <0.01) (FIG. 16G).
# [4] = system: human iPSC-derived kidney organoids; test: Comparison of PI3K inhibitors on kidney organoids; type: cell-based
# Method: Small-molecule inhibitor screen and culture optimization: For all small molecule inhibitors used in this study, initial screens were performed on kidney organoids to determine the optimal dosage and duration of culture. […] Concentrations tested used insights from prior studies. After an ideal concentration was established, to determine optimal duration of treatment with the small molecule, separate differentiation experiments were set up with the small molecule from differentiation days 10 to 18, as well as differentiation days 12 to 18. For all optimization screens, time-course bright-field imaging was performed, and organoids were collected for whole-mount immunofluorescent analyses on differentiation day 18. […] Small-molecule inhibitor screen and culture optimization: For all small molecule inhibitors used in this study, initial screens were performed on kidney organoids to determine the optimal dosage and duration of culture. […] After an ideal concentration was established, to determine optimal duration of treatment with the small molecule, separate differentiation experiments were set up with the small molecule from differentiation days 10 to 18, as well as differentiation days 12 to 18. For all optimization screens, time-course bright-field imaging was performed, and organoids were collected for whole-mount immunofluorescent analyses on differentiation day 18.
# [5] = system: kidney organoid nephrogenic cells; test: Single-cell RNA-sequencing of kidney organoids; type: cell-based, human
# Method: Kidney organoid cell dissociation: Approximately 6 organoids from multiple independent wells of both untreated and treated (48 hour culture with 10 μM LY294002 between days 10 and 12) conditions were collected at differentiation days 10, 12, 14, and 18 for single-cell RNA-sequencing, from separate differentiation batches. The organoids were dissociated using Accumax (Stem Cell Technologies, 07921) at 37° C./5% CO2 for 35 minutes and pipetted twenty times with a P-1000 wide-bore pipette tip every 5 minutes. The dissociation was neutralized by using a 2× volume of AutoMACS Running Buffer (Miltenyi Biotec, 130-091-221). Cells were pelleted by centrifugation at 4° C. for 3 minutes at 300×g. After resuspending the pellet in 2 mL of AutoMACS Running Buffer, cell suspensions were strained through 40 μm strainer (VWR, 21008-949), washing the filter with an additional 1 mL AutoMACS. The flow-through was pelleted, again at 300×g in a 4° C. for 3 minutes. […]
# SPLiT-seq single-cell RNA-sequencing data collection and analyses: SPLiT-seq cell processing. […] Fixed cells were then stored at −80° C. until all samples were ready to be processed with the Evercode WT v2 single-cell RNA-sequencing platform (Parse Biosciences, ECW02030). […]
# [6] = system: human iPSC-derived kidney organoids; test: Bulk mRNA-sequencing of whole kidney organoids; type: cell-based
# Method: mRNA-sequencing and data analyses: Whole organoid samples (3 independent biological replicates per timepoint, per condition for differentiation days 10 and 12, and 2 replicates for differentiation days 14 and 18) were prepared and purified according to the RNeasy Mini Kit (Qiagen, 74104). Purified RNA was sent to Novogene for sequencing. Reads were aligned to the hg38 Ensembl 105 annotation using STAR version 2.7.10a. A noise-reduction filter was applied to keep genes in which the maximum count in at least one sample was greater than or equal to 10. Partek Flow version 10.0 was then used to normalize these raw feature counts following the transcripts per million (TPM) normalization method. After filtering genes with TPM values greater than or equal to 25 in at least one sample, Z-score averages were calculated and heatmaps were clustered using pheatmap. Separately, gene set enrichment analyses were performed specifically on Day 12 replicate samples by first normalizing noise-reduced feature counts using the DESeq2 median ratio method, as recommended for gene set enrichment analyses. Partek Flow version 10.0 was then subsequently used for gene set enrichment analyses. Data are deposited with GEO accession number GSE264217 and will be made publicly available as of the date of publication.
# [7] = system: day 21 proximal-biased kidney organoids; test: Single-nucleus RNA-sequencing of cisplatin-treated PB organoids; type: cell-based, human; conditions: day 21, double-dose
# Method: Single-nucleus preparation of kidney organoids: For single-nucleus RNA-sequencing, the same number of organoids from multiple independent wells were snap-frozen in liquid nitrogen before nuclei isolation. Briefly, organoids were transferred to a 1.7 mL low binding tube, centrifuged to form a pellet, and snap-frozen in liquid nitrogen. Flash-frozen organoids were dounced in cold Nuclei EZ Lysis Buffer (Sigma, N3408) supplemented with protease inhibitor (Roche, 05892791001). Homogenization was performed using a loose pestle and tight pestle system (Sigma, P0485) with 15 loose-dounce strokes, followed by filtration through a 200 μm strainer (pluriSelect, 43-50200). The homogenate was then subjected to an additional 5 strokes with the tight pestle and incubated on ice for 5 minutes. The suspension was filtered through a 40 μm strainer (pluriSelect, 43-50040) and centrifuged at 500×g for 5 minutes at 4° C. in a swinging-bucket centrifuge. After removing the supernatant, the nuclei pellet was resuspended in just Nuclei EZ Lysis Buffer, incubated on ice for an additional 5 minutes, and centrifuged again. […]
# Single-nucleus processing and sequencing: Single-nucleus RNA-sequencing libraries were generated using the 10× Genomics Chromium Next GEM Single Cell Multiome reagents (PN 1000283) following the manufacturer's protocols (10× Genomics; CG000338 Rev E). Briefly, freshly prepared single-nuclei suspensions were counted on a Countess 3 FL cell counter and approximately 9,000 nuclei per condition went through 1 hour of transposition at 37° C. followed by GEM generation and barcoding on a Chromium X machine with immediate subsequent RT reaction. cDNA was generated from 7 preAmp cycles and 8 cDNA cycles. […]
# Single-nucleus RNA-sequencing analyses: Single-nucleus RNA-sequencing data was processed using Cell Ranger (v9.0.0) and the Seurat 5.2 R package. […] Feature-barcode matrices were subsequently imported into Seurat using the Read10× function. […]
# [8] = system: control and proximal-biased kidney organoids; test: In vitro cisplatin injury assay; type: cell-based, human; conditions: for HNF4A/SOX9 cell state: single cisplatin-dose
# Method: In vitro cisplatin injury assay: For the kidney organoid cisplatin injury assay, the study adapted an approach undertaken by two recent studies. Differentiation day 18 control and proximal-biased organoids were incubated overnight (18 hrs) at 37° C./5% CO2 in TeSR-E6 supplemented with 5 μM cisplatin (Millipore Sigma, 232120). […] Uninjured organoids were cultured with DMSO vehicle. Organoids were then processed for immunofluorescent imaging and analyses. In vitro cisplatin injury assay: For the kidney organoid cisplatin injury assay, the study adapted an approach undertaken by two recent studies. Differentiation day 18 control and proximal-biased organoids were incubated overnight (18 hours) at 37° C./5% CO2 in TeSR-E6 supplemented with 5 μM cisplatin (Millipore Sigma, 232120). Organoids recovered between days 19 and 20, before another overnight culture (18 hours) between days 20 and 21 with 5 μM cisplatin. Uninjured organoids were cultured with DMSO vehicle. Organoids were then processed for immunofluorescent imaging and analyses.
smiles,measurement,setting,value
C[C@H](NC(=O)Cc1cc(F)cc(F)c1)C(=O)N[C@H](C(=O)OC(C)(C)C)c1ccccc1 [DAPT],nephron elongation and HNF1B/HES1 upregulation,"[1]; day 12, cultured with DAPT, either with or without Ly29",did not elongate or further upregulate HNF1B; also recorded: did not upregulate HNF1B or HES1
same,Hnf4a expression,[2],blocked Hnf4a expression
same,HNF4A-YFP,[3],reduced HNF4A-YFP
CS(=O)(=O)N1CCN(Cc2cc3nc(-c4cccc5[nH]ncc45)nc(N4CCOCC4)c3s2)CC1 [GDC-0941],efficacy relative to LY294002,[4]; FIG. 11,slightly less efficacy than LY294002
same,proximal-biasing phenotype of PI3K inhibition,"[4]; second, structurally different PI3K inhibitor",confirmed
"O=c1cc(N2CCOCC2)oc2c(-c3ccccc3)cccc12 [Ly29, LY294002]",HNF1B+ nephron size increase,"[1]; day 12 organoids, vs controls",1.64 fold
same,JAG1+ nephron size increase,"[1]; day 12 organoids, vs controls",2.36 fold
same,"abundance of HNF1B within each nephron, increase","[1]; day 12 organoids, vs controls",1.22 fold
same,"sum total area of HNF4A+ organoid nephron segments, increase","[1]; day 18, n=3 organoids, vs controls",2.83 fold
same,"average size of individual HNF4A+ segments, increase","[1]; day 18 organoids, vs controls",1.30 fold
same,"total number of HNF4A+ segments per organoid, increase","[1]; day 18 organoids, vs controls",4.02 fold
same,share of all HNF4A+ cells that originated from the PB condition,"[5]; days 12, 14, 18 integrated",72.7%
same,share of all HNF4A+ proximal tubule precursors that originated from the PB condition,[5]; scaled for total cell numbers,70.8%
same,HNF1B expression upregulated,"[6]; RNA-sequencing, day 12, 48 hr treatment, vs control",2.88 fold
same,increase in JAG1 expression,"[6]; RNA-sequencing, day 12, treated days 10-12, vs control",1.78 fold
same,increase in HNF4A transcript levels,"[6]; bulk RNA-sequencing, day 18, vs controls",2.31 fold
same,increase in HNF4G transcript levels,"[6]; bulk RNA-sequencing, vs controls",1.72 fold
same,HNF4A expression at day 12,"[6]; day 12, not detected",< 1.7 TPM
N.N.[Cl][Pt][Cl] [cisplatin],HAVCR1 and SOX9 detection in injured cells,[7]; vs uninjured,higher detection
same,KRT17 detection,[7]; proximal subset,exclusively detected in the injured population
same,cells positive for injury markers that originated from the injured population,[7]; proximal subset,approximately 75%
same,tubular integrity and apicobasal polarity,"[8]; ATP1A1 and LAMB1 distribution, injured nephrons",loss of tubular integrity and apicobasal polarity
same,SOX9 response to injury,"[8]; PB kidney organoid nephrons, double dose",activated SOX9
same,correlation of HNF4A protein levels with γH2AX (r),"[8]; cisplatin-injured PB nephrons, day 21",−0.67
same,sensitivity of PB nephrons,"[8]; day 18, 5 μM, 72 hrs",sensitive
same,uninterrupted tubular lumens longer in uninjured samples,"[8]; day 21 PB organoids, uninjured vs injured",2.82 fold
same,KIM1/HAVCR1 protein abundance higher in PB organoid nephrons,"[8]; day 21 following injury, PB vs control organoid nephrons",1.56 fold
same,HNF4A/SOX9 cell state,[8]; 1 day post-injury,HNF4AHIGH/SOX9LOW
same,HNF4A/SOX9 cell state,[8]; 3 days post-injury,HNF4AMED/SOX9MED
same,HNF4A/SOX9 cell state,[8]; 6 days post-injury,HNF4ALOW/SOX9HIGH
same,KIM1/HAVCR1 in HNF4A+ PB nephron cells,"[8]; two staggered doses 5 μM, assayed 3 days after initial injury, PB organoids",strong detection
same,KIM1/HAVCR1 in injured control organoids,"[8]; two staggered doses 5 μM, control organoids",sparse
